What all share (assay): MIC by broth microdilution (antibacterial and synergistic activity)
Format in all cases: cell-based
Background: Dilution methods test growth across graded concentrations, often in twofold steps.

Experiment [1] deals with A. baumannii clinical isolate (strain 7, OXA-23, OXA-40). The following applies: for MIC: Acinetobacter baumannii. Here is the method:
(§1) Compounds of the present invention alone, avibactam (AVI) alone, relebactam (REL) alone, meropenem (MER) alone, imipenem (IMI) alone, and as a combination of compounds of the present invention, or avibactam or relebactam with test antibiotic (meropenem or imipenem) was tested for antimicrobial activity by determining minimum inhibitory concentration (MIC, mg/L) using the broth microdilution method according to the guidelines of the Clinical Laboratories and Standards Institute (“Methods for Dilution Antimicrobial Susceptibility Tests for Bacterial that Grow Aerobically”, Approved standard, 7th ed., Clinical and Laboratories Standards Institute (CLSI) Document M7-A8, Wayne, Pa., USA, 2009). Meropenem or imipenem as a test antibiotic compound was dissolved in DMSO, and then diluted in microbial growth medium (Mueller-Hinton Broth II, cation adjusted) resulting in a final concentration range of 0.031-64 mg/L in serial two-fold dilution. In all cases the final DMSO concentration was less than 0.5%. Bacteria were added to 96-well microtitre plates containing the serial two-fold dilutions of the compounds; the final cell density was approximately 5×10^5 colony forming units/mL (CFU/mL). Plates were incubated at 37° C. for 18-24 hours and read visually. The MIC, i.e. the lowest concentration of the test compound that inhibited visible growth of the bacteria, was recorded. The same assay conditions were used when the compounds of present invention alone, avibactam or relebactam alone (as a control), and as a combination of the present invention each compound, or avibactam or relebactam with test meropenem or imipenem antibiotic compound was tested for minimum inhibitory concentration (MIC, mg/L). While test meropenem or imipenem was serially diluted as described above, a constant concentration of avibactam, or relebactam or the present invention each compound of 4 mg/L was used.
(§2) Bacterial strains that were used to evaluate the antimicrobial activity using the MIC determination included but were not limited to E. coli clinical isolate (strain 1, TEM-1), E. coli 8739 (strain 2, CTX-M15), K. pneumoniae clinical isolate (strain 3, SHV-1), K. pneumoniae 700603 (strain 4, KPC-3, TEM-1), E. cloacae clinical isolate (strain 5, P99), E. cloacae 700323 (strain 6, AmpC), A. baumannii clinical isolate (strain 7, OXA-23, OXA-40), A. baumannii 19606 (strain 8, OXA-24), P. aeruginosa clinical isolate (strain 9, KPC-2), P. aeruginosa 9027 (strain 10, AmpC).

The test system of experiment [2] is P. aeruginosa clinical isolate (strain 9, KPC-2). As to conditions: for MIC: Pseudomonas aeruginosa. As to the method: as §1, §2
In experiment [3] the test system is E. cloacae 700323 (strain 6, AmpC). The following applies: for MIC: Enterobacter cloacae. Here is the method:
as §1, §2

In experiment [4] the test system is K. pneumoniae 700603 (strain 4, KPC-3, TEM-1). The following applies: for MIC: Klebsiella pneumoniae. As to the method: as §1, §2
The subject of experiment [5] is E. cloacae clinical isolate (strain 5, P99). As to conditions: for MIC: Enterobacter cloacae. Here is the method:
as §1, §2

Experiment [6] deals with E. coli clinical isolate (strain 1, TEM-1). The following applies: for MIC: Escherichia coli. Here is the method:
as §1, §2

For experiment [7], the system named is A. baumannii 19606 (strain 8, OXA-24). The following applies: for MIC: Acinetobacter baumannii. As to the method: as §1, §2
Experiment [8] has as its system P. aeruginosa 9027 (strain 10, AmpC). The following applies: for MIC: Pseudomonas aeruginosa. Here is the method: as §1, §2
In experiment [9] the test system is K. pneumoniae clinical isolate (strain 3, SHV-1). As to conditions: for MIC: Klebsiella pneumoniae. Here is the method: as §1, §2
Experiment [10] relates to E. coli 8739 (strain 2, CTX-M15). The following applies: Escherichia coli, read-out: Antibacterial activity, MIC, inhibitor Alone. Here is the method:
as §1, §2

The mark [11] stands for this setting: read-out: Antibacterial activity, MIC, inhibitor Alone.
Where [12] appears, read: strain 7 (OXA-23/40), compound alone, no antibiotic, read-out: Antibacterial activity, MIC, inhibitor Alone.
Setting [13] is: strain 9 (KPC-2), compound alone, no antibiotic, read-out: Antibacterial activity, MIC, inhibitor Alone.
[14] abbreviates: strain 6 (AmpC), compound alone, no antibiotic, read-out: Antibacterial activity, MIC, inhibitor Alone.
The mark [15] stands for this setting: strain 4 (KPC-3, TEM-1), compound alone, no antibiotic, read-out: Antibacterial activity, MIC, inhibitor Alone.
[16] abbreviates: strain 5 (P99), compound alone, no antibiotic, read-out: Antibacterial activity, MIC, inhibitor Alone.
Setting [17] is: strain 1 (TEM-1), compound alone, no antibiotic, read-out: Antibacterial activity, MIC, inhibitor Alone.
The mark [18] stands for this setting: strain 10 (AmpC), compound alone, no antibiotic, read-out: Antibacterial activity, MIC, inhibitor Alone.
The mark [19] stands for this setting: strain 3 (SHV-1), compound alone, no antibiotic, read-out: Antibacterial activity, MIC, inhibitor Alone.
[20] abbreviates: strain 7 (OXA-23/40), inhibitor at constant 4 mg/L.
The mark [21] stands for this setting: strain 9 (KPC-2), inhibitor at constant 4 mg/L.
Where [22] appears, read: strain 6 (AmpC), inhibitor at constant 4 mg/L.
[23] abbreviates: strain 4 (KPC-3, TEM-1), inhibitor at constant 4 mg/L.
The mark [24] stands for this setting: strain 5 (P99), inhibitor at constant 4 mg/L.
The mark [25] stands for this setting: strain 1 (TEM-1), inhibitor at constant 4 mg/L.
Setting [26] is: strain 10 (AmpC), inhibitor at constant 4 mg/L.
Where [27] appears, read: strain 3 (SHV-1), inhibitor at constant 4 mg/L.

Structures can show the parent of a compound that is named as a salt. Where two headings read alike, the source gives them in different places. Bounds are passed on as bounds.

The term MIC denotes the lowest concentration found to suppress growth.

With `CNS(=O)(=O)NC(=N)[C@@H]1CC[C@@H]2CN1C(=O)N2OS(=O)(=O)O` [Ex. 17, (2S,5R)-2-(N—(N-Methylsulfamoyl)carbamimidoyl)-7-oxo-1,6-diazabicyclo[3.2.1]octan-6-yl hydrogen sulfate], the minimum inhibitory concentration (MIC) in experiment [1] (setting [11]), in experiment [2] (setting [11]), in [3] (setting [11]), in experiment [4] (setting [11]), in [5] (setting [11]) and in experiment [6] (setting [11]) was greater than 64 µg/mL in each case. In addition, the MIC in experiment [7] (setting [11]), in experiment [8] (setting [11]), in experiment [9] (setting [11]) and in [10] was greater than 64 µg/mL each time.

In the case of `CCNS(=O)(=O)NC(=N)[C@@H]1CC[C@@H]2CN1C(=O)N2OS(=O)(=O)O` [Ex. 18, (2S,5R)-2-(N—(N-Ethylsulfamoyl)carbamimidoyl)-7-oxo-1,6-diazabicyclo[3.2.1]octan-6-yl hydrogen sulfate], the MIC in [1] (setting [12]), in experiment [2] (setting [13]), in experiment [3] (setting [14]), in [4] (setting [15]), in [5] (setting [16]) and in experiment [6] (setting [17]) was greater than 64 µg/mL in each case. Also, the MIC in [7] (setting [11]), in experiment [8] (setting [18]), in experiment [9] (setting [19]) and in experiment [10] was greater than 64 µg/mL in each case.

For `COc1ccc(S(=O)(=O)NC(=N)[C@@H]2CC[C@@H]3CN2C(=O)N3OS(=O)(=O)O)nc1` [Ex. 22, (2S,5R)-2-(N-((5-methoxypyridin-2-yl)sulfonyl)carbamimidoyl)-7-oxo-1,6-diazabicyclo[3.2.1]octan-6-yl hydrogen sulfate], the MIC in experiment [1] (setting [12]), in experiment [2] (setting [13]), in experiment [3] (setting [14]), in experiment [4] (setting [15]), in [5] (setting [16]) and in experiment [6] (setting [17]) was greater than 64 µg/mL throughout. The MIC in experiment [7] (setting [11]), in [8] (setting [18]), in [9] (setting [19]) and in [10] was greater than 64 µg/mL in each case.

For the compound `Cn1cnc(S(=O)(=O)NC(=N)[C@@H]2CC[C@@H]3CN2C(=O)N3OS(=O)(=O)[O-])c1.[Na+]` [Ex. 7, Sodium (2S,5R)-2-(N-((1-methyl-1H-imidazol-4-yl)sulfonyl)carbamimidoyl)-7-oxo-1,6-diazabicyclo[3.2.1]octan-6-yl sulfate], the MIC in experiment [1] (setting [12]), in experiment [3] (setting [14]), in [4] (setting [15]), in experiment [5] (setting [16]), in [6] (setting [17]) and in [7] (setting [11]) was greater than 64 µg/mL in each case. Besides, the MIC in [8] (setting [18]), in [9] (setting [19]) and in experiment [10] was greater than 64 µg/mL each time.

On to `COC(=O)CS(=O)(=O)NC(=N)[C@@H]1CC[C@@H]2CN1C(=O)N2OS(=O)(=O)[O-].[Na+]` [Ex. 2, Sodium (2S,5R)-2-(N-((2-methoxy-2-oxoethyl)sulfonyl)caramimidoyl)-7-oxo-1,6-diazabicyclo[3.2.1]octan-6-yl sulfate], for which the “MIC of imipenem in combination with the inhibitor (IMI + inhibitor)” value was 0.25 µg/mL in experiment [1] (setting [20]); 1.0 µg/mL in experiment [2] (setting [21]); 0.5 µg/mL in experiment [3] (setting [22]); less than 0.125 µg/mL in experiment [4] (setting [23]); less than 0.125 µg/mL in [5] (setting [24]); less than 0.125 µg/mL in [6] (setting [25]). For the same compound, the “MIC of imipenem in combination with the inhibitor (IMI + inhibitor)” value in experiment [8] (setting [26]) is 1.0 µg/mL; in [9] (setting [27]), 0.25 µg/mL. The “MIC of meropenem in combination with the inhibitor (MER + inhibitor)” value in experiment [1] (setting [20]) is less than 0.125 µg/mL; in experiment [2] (setting [21]), 0.125 µg/mL; in experiment [3] (setting [22]) it was less than 0.125 µg/mL; in experiment [4] (setting [23]), less than 0.125 µg/mL; in experiment [5] (setting [24]), less than 0.125 µg/mL; in experiment [6] (setting [25]), less than 0.125 µg/mL. Besides, the “MIC of meropenem in combination with the inhibitor (MER + inhibitor)” value was 0.5 µg/mL in experiment [7] (strain 8 (OXA-24), inhibitor at constant 4 mg/L); less than 0.125 µg/mL in experiment [8] (setting [26]); 0.125 µg/mL in experiment [9] (setting [27]).

In the case of `C[C@@H](O)[C@H]1C(=O)N2C(C(=O)O)=C(SCCN=CN)C[C@H]12` [IMI, imipenem, reference compound], the MIC in experiment [1] (strain 7 (OXA-23/40), imipenem alone, read-out: MIC, IMI Alone) stood at 0.5 µg/mL; in experiment [2] (strain 9 (KPC-2), imipenem alone, read-out: MIC, IMI Alone) it was 2 µg/mL; in experiment [3] (strain 6 (AmpC), imipenem alone, read-out: MIC, IMI Alone), 0.5 µg/mL; in experiment [4] (strain 4 (KPC-3, TEM-1), imipenem alone, read-out: MIC, IMI Alone), 4 µg/mL; in experiment [5] (strain 5 (P99), imipenem alone, read-out: MIC, IMI Alone), 4 µg/mL; in experiment [6] (strain 1 (TEM-1), imipenem alone, read-out: MIC, IMI Alone) it was 0.5 µg/mL. Besides, the minimum inhibitory concentration (MIC) in [7] (read-out: MIC, IMI Alone) was determined as 2 µg/mL; in experiment [8] (strain 10 (AmpC), imipenem alone, read-out: MIC, IMI Alone) it was 4 µg/mL; in experiment [9] (strain 3 (SHV-1), imipenem alone, read-out: MIC, IMI Alone), 2 µg/mL.

`C[C@@H](O)[C@H]1C(=O)N2C(C(=O)O)=C(S[C@@H]3CN[C@H](C(=O)N(C)C)C3)[C@H](C)[C@H]12` [MER, meropenem, reference compound]: the MIC in experiment [1] (strain 7 (OXA-23/40), meropenem alone, read-out: MIC, MER Alone) amounted to 4 µg/mL; in experiment [2] (strain 9 (KPC-2), meropenem alone, read-out: MIC, MER Alone), 4 µg/mL; in experiment [3] (strain 6 (AmpC), meropenem alone, read-out: MIC, MER Alone), 4 µg/mL; in [4] (strain 4 (KPC-3, TEM-1), meropenem alone, read-out: MIC, MER Alone), 2 µg/mL; in [5] (strain 5 (P99), meropenem alone, read-out: MIC, MER Alone) it was 4 µg/mL; in [6] (strain 1 (TEM-1), meropenem alone, read-out: MIC, MER Alone) it was 4 µg/mL. Further, the MIC in experiment [7] (read-out: MIC, MER Alone) was 2 µg/mL; in experiment [8] (strain 10 (AmpC), meropenem alone, read-out: MIC, MER Alone) it was 4 µg/mL; in experiment [9] (strain 3 (SHV-1), meropenem alone, read-out: MIC, MER Alone) it was 4 µg/mL.

The values above are taken from patent US12410166B2, “Sulfonylamidine substituted compounds and their use as beta-lactamase inhibitors” (NINGXIA ACADEMY OF AGRICULTURE AND FORESTRY SCIENCES, priority 2021, dated 2025).
